This is an account of results in patent publication US11376259B2, “Targeted treatment of mature T-cell lymphoma” (Eli Lilly and Company, priority 2016, dated 2022).

The test system of one data set is AITL. As to the kind of experiment: Clinical evaluation in patients with relapsed or refractory peripheral T-cell lymphoma (AITL patients). The format is in vivo, human. Particulars: cycle 1, oral capsules T.I.W., preliminary data. An excerpt:
(§1) A study of 4,4,4-Trifluoro-N-[(1S)-2-[[(7S)-5-(2-hydroxyethyl)-6-oxo-7H-pyrido[2,3-d][3]benzazepin-7-yl]amino]-1-methyl-2-oxo-ethyl]butanamide hydrate in patients with advanced or metastatic cancer.
This study is a multicenter, nonrandomized, open-label, dose-escalation study followed by cohort expansion of oral dosed 4,4,4-trifluoro-N-[(1S)-2-[[(7S)-5-(2-hydroxyethyl)-6-oxo-7H-pyrido[2,3-d][3]benzazepin-7-yl]amino]-1-methyl-2-oxo-ethyl]butanamide hydrate in outpatients with advanced or metastatic cancer.
Cohort expansion of oral 4,4,4-trifluoro-N-[(1S)-2-[[(7S)-5-(2-hydroxyethyl)-6-oxo-7H-pyrido[2,3-d][3]benzazepin-7-yl]amino]-1-methyl-2-oxo-ethyl]butanamide hydrate in outpatients with advanced or metastatic cancer. Patients will be entered based on screened molecular alterations related to the Notch pathway. Patients initially dosed with 75 mg/dose administered T.I.W. are dose-reduced to 50 mg/dose administered T.I.W. […]
(§2) Efficacy: Efficacy will be assessed using Response Evaluation Criteria in Solid Tumors (RECIST) v1.1 or using the Cheson et al., J. Clin. Oncol., 2007, 25(5): 579-586, response criteria for lymphoma. Each patient will be assessed by 1 or more of the following radiologic tests for tumor measurement: X-ray computerized tomography (CT) scan; magnetic resonance imaging (MRI); chest X-ray; positron emission tomography (PET) scan; dynamic contrast enhanced-magnetic resonance imaging (DCE-MRI); PET/CT imaging Standardized Uptake Values (SUVMAX); Dynamic Contrast-Enhanced Ultrasonography (DCE-US).
Each patient's full extent of disease will also be assessed with: applicable tumor measurement by RECIST 1.1 (Eisenhauer et al., Eur J Cancer. 2009, 45(2): 228-247); Cheson et al., J. Clin. Oncol., 2007, 25(5): 579-586; and Choi et al., J Clin Oncol. […] To confirm objective responses, all lesions should be radiologically assessed, and the same radiologic method used for the initial response determination should be repeated at least 4 weeks following the initial observation of an objective response, using the sample method that was used at baseline. […]

The next data set has as its system PTCL-NOS. Briefly: Clinical evaluation in patients with relapsed or refractory peripheral T-cell lymphoma (PTCL-NOS patient). The conditions noted are these: Patient 3, PTCL-NOS, cycle 1, oral capsules T.I.W., preliminary data. In kind it is in vivo, human.
Text: as §1
This study is a multicenter, nonrandomized, open-label, dose-escalation study followed by cohort expansion of oral dosed 4,4,4-trifluoro-N-[(1S)-2-[[(7S)-5-(2-hydroxyethyl)-6-oxo-7H-pyrido[2,3-d][3]benzazepin-7-yl]amino]-1-methyl-2-oxo-ethyl]butanamide hydrate in outpatients with advanced or metastatic cancer. […]
as §2
Each patient's full extent of disease will also be assessed with: applicable tumor measurement by RECIST 1.1 (Eisenhauer et al., Eur J Cancer. 2009, 45(2): 228-247); Cheson et al., J. Clin. Oncol., 2007, 25(5): 579-586; and Choi et al., J Clin Oncol. […]

Data set [1] in a line: Atropisomer equilibrium in solution by 1H NMR and LC-MS. The conditions noted are these: ambient temperature, after 24 hours. The format is physicochemical. The procedure:
In aqueous solutions, 8-9% of atropisomer 2 (minor atropisomer) is detected by ^1H NMR and LC-MS in equilibrium with atropisomer 1 (major atropisomer) at ambient temperature after 24 hours. In organic solvents, at ambient temperature after 24 hours, approximately 1-2% of atropisomer 2 is detected by ^1H NMR and LC-MS in equilibrium with atropisomer 1. Although detectable by ^1H NMR and LC-MS analysis, atropisomer 2 is not isolable.

In the case of `C[C@H](NC(=O)CCC(F)(F)F)C(=O)N[C@@H]1C(=O)N(CCO)c2ncccc2-c2ccccc21` [4,4,4-trifluoro-N-[(1S)-2-[[(7S)-5-(2-hydroxyethyl)-6-oxo-7H-pyrido[2,3-d][3]benzazepin-7-yl]amino]-1-methyl-2-oxo-ethyl]butanamide hydrate], in the data set on AITL (Patient 1, AITL), the “CT Scan assessment: Tumor decrease” value was “of 80%” and the “PET Scan (response)” value is recorded as “Partial”. Moreover, in the data set with AITL (Patient 2, AITL), the “CT Scan assessment: Tumor decrease” value is on record as “of 20%”. In the data set with PTCL-NOS, the “CT Scan assessment” value is reported as “Stable” and the “Other assessments: Abnormal T cells” value is listed as “Decrease of”.

`C[C@H](NC(=O)CCC(F)(F)F)C(=O)N[C@@H]1C(=O)N(CCO)c2ncccc2-c2ccccc21` [Compound 1, 4,4,4-trifluoro-N-[(1S)-2-[[(7S)-5-(2-hydroxyethyl)-6-oxo-7H-pyrido[2,3-d][3]benzazepin-7-yl]amino]-1-methyl-2-oxo-ethyl]butanamide]: the results for the “atropisomer 2 (minor atropisomer) detected in equilibrium with atropisomer 1” value in data set [1] (aqueous solutions) and in data set [1] (organic solvents) were 8-9% and 1-2%, respectively.
